In patent publication US20100304380A1, “Quantitative DNA Methylation Imaging of Cells and Tissues” (EPILUMINA, INC., priority 2009, published 2010):

Assays:
[1] = system: AtT20 mouse pituitary tumor cells; experiment: Quantitative DNA Methylation (MeC) Imaging of nuclear MeC/DAPI colocalization; type: cell-based; settings: treated AtT20 cells in culture versus untreated cells (tight colocalization); FIG. 3
Source text: Approximately 55% of the human genome is comprised of heterochromatin. […] Therefore, we used the genome and its 3D organization as an indicator to evaluate the effect of demethylating drugs on cancer cells in situ. Our approach provides a statistical measurement on the two classes of DNAs (MeC and DAPI-positive gDNA) as nuclear targets. The algorithm compares the relative distribution of signals derived from these two targets (from two color-channels), projects them onto scatter plots (FIGS. 3 and 4), and then measures the degree of similarities between the plotted signal distributions of cells within a population. This method offers a way to evaluate cellular response to external factors such as drugs and changes in culture conditions via dissimilarity assessment of relevant cellular structures. […] This method considers the strength of statistical evaluation of intra-nuclear MeC/DAPI patterns, especially valuable when cell population homogeneity is difficult to be assessed due to lack of standardized reference and sample size.
FIG. 1 is a workflow of Quantitative DNA Methylation (MeC) Imaging comprised of three steps: (1) immunofluorescence with antibodies against MeC (and against a cell-type or cell-characteristic marker) and DNA counterstaining with DAPI, (2) high-resolution fluorescence microscopy to collect 2D optical sections of the cells, and (3) 3D fluorescence image analysis. […]

[2] = system: TtT-GF mouse folliculostellate pituitary cell nuclei; experiment: Quantitative DNA Methylation Imaging of nuclear MeC/DAPI colocalization; type: cell-based; settings: 100 nM, 24 hours, TtT-GF cells in culture; selected cells 1-5; FIG. 4
Source text: Therefore, we used the genome and its 3D organization as an indicator to evaluate the effect of demethylating drugs on cancer cells in situ. Our approach provides a statistical measurement on the two classes of DNAs (MeC and DAPI-positive gDNA) as nuclear targets. The algorithm compares the relative distribution of signals derived from these two targets (from two color-channels), projects them onto scatter plots (FIGS. 3 and 4), and then measures the degree of similarities between the plotted signal distributions of cells within a population. This method offers a way to evaluate cellular response to external factors such as drugs and changes in culture conditions via dissimilarity assessment of relevant cellular structures. […] This method considers the strength of statistical evaluation of intra-nuclear MeC/DAPI patterns, especially valuable when cell population homogeneity is difficult to be assessed due to lack of standardized reference and sample size. FIG. 1 is a workflow of Quantitative DNA Methylation (MeC) Imaging comprised of three steps: (1) immunofluorescence with antibodies against MeC (and against a cell-type or cell-characteristic marker) and DNA counterstaining with DAPI, (2) high-resolution fluorescence microscopy to collect 2D optical sections of the cells, and (3) 3D fluorescence image analysis. […]

Structure (SMILES) | change of nuclear DNA methylation patterns (MeC vs heterochromatin/DAPI colocalization) [1] | response (demethylation) of the cell population, MeC vs heterochromatin/DAPI colocalization [2]
Nc1ncn([C@@H]2O[C@H](CO)[C@@H](O)[C@H]2O)c(=O)n1 [5-azacytidine] | large foci that are uniquely comprised of three types of signals/genomic loci | –
C[C@@H](O)[C@@H]1NC(=O)[C@H](CCCCN)NC(=O)[C@@H](Cc2c[nH]c3ccccc23)NC(=O)[C@H](Cc2ccccc2)NC(=O)[C@@H](NC(=O)[C@H](N)Cc2ccccc2)CSSC[C@@H](C(=O)N[C@H](CO)[C@@H](C)O)NC1=O [octreotide] | – | diverse response
